These results are taken from US5298508A, “Irreversible inhibitors of adenosine receptors” (priority 1992, dated 1994).

A short description of one data set: stability to storage. Format: physicochemical. To be noted: result in words. The protocol: A modification of the procedure of Newman et al., J. Med. Chem. 30: 1901, 1987, was used. In this procedure, 1,3-phenylenediamine, 0.211 grams, 1.95 mmol, was dissolved in 80 ml chloroform. Thirty ml water and 0.38 gram, 4.5 mmol, sodium bicarbonate was added, and the mixture was stirred vigorously. After ten minutes, 0.4 ml, 5.2 mmol of freshly distilled thiophosgene was added. After one hour, the phases were separated, and the organic layer was dried over sodium sulfate and evaporated. The residue was triturated with ether:petroleum ether, 1:1, and filtered. The filtrate was evaporated, leaving the product as a white solid (0.30 g, 81% yield), melting at 50.5°-51° C.

Data set [1] concerns A1-adenosine receptors. The data set can be described thus: covalent labeling of solubilized central A1 receptor preparation, SDS electrophoresis. Type of data set: binding. The note with it: tritiated 4b, SDS gel, with or without high concentration of R-PIA.
Description: An SDS electrophoresis gel separated proteins from a solubilized central A1 receptor preparation, pretreated with compound 4b (lane 1).
The next data set addresses T1, A1 adenosine receptors (Rattus norvegicus, UniProt P25099).
T1 construct: A1 adenosine receptors in rat cerebral cortex membranes; from tissue; host or cells: rat cerebral cortex membranes
T1 sequence (P25099 1-326): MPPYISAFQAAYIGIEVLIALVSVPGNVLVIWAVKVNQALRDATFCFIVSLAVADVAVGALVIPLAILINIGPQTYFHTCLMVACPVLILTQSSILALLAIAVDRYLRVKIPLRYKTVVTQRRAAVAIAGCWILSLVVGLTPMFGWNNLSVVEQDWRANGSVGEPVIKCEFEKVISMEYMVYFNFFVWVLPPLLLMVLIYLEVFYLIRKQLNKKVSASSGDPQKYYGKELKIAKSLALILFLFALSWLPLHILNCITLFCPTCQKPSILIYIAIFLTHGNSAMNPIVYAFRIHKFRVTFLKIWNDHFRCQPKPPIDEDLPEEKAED
Put plainly: inhibition of binding of [3H]N6-phenylisopropyladenosine ([3H]PIA) to A1 adenosine receptors in rat cerebral cortex membranes. The protocol:
Ukena et al., FEBS Letters 209;122, 1986.
For the biochemical assays, stock solutions of xanthines in the millimolar concentration range in dimethylsulfoxide were prepared and stored frozen. The solutions were warmed to 50° C. prior to dilution in aqueous medium. […] Acad. Sci. USA, 83:4089, 1986. Inhibition of binding by a range of concentrations of a xanthine or adenosine derivative was assessed in triplicate in at least three separate experiments.

In data set [2] the target is T2, central A1 receptors (Bos taurus, UniProt P28190).
T2 construct: A1 -adenosine receptors in membranes form calf brain; from tissue; host or cells: calf brain membranes
T2 sequence (P28190 1-326): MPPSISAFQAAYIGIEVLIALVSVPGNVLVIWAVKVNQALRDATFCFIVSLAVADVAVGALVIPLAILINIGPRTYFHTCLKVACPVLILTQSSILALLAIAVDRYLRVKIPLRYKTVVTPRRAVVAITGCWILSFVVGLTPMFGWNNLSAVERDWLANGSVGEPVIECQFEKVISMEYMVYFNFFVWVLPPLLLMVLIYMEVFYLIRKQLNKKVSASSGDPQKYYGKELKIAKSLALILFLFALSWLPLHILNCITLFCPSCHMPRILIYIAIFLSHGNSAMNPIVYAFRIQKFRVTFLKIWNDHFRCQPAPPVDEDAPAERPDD
The data set can be described thus: inhibition of radioligand binding at central A1 receptors, calf brain membranes. From the text: ^b against [^125 I]APNEA (i.e. N^6
^b against [^125 I]APNEA;
The compounds, at concentrations relative to the Ki -values obtained, were screened for the ability to inhibit competitive binding of the radioligands [^3 H]PIA to rat brain membranes and [^3 H]XAC to bovine brain membranes, a shown in Table 1.

In data set [3] the target is T3, central A1 receptors (Rattus norvegicus, UniProt P25099).
T3 construct: A1 -adenosine receptors in rat brain membranes; from tissue; host or cells: rat brain membranes
T3 sequence (P25099 1-326): T1 sequence (P25099 1-326)
Format: binding.

Data set [4] concerns A1-adenosine receptors. The data set can be described thus: irreversible inhibition of [3H]XAC binding sites after one hour incubation and washout, bovine brain membranes. More on the design: species or system bovine (calf).
The target of a further data set is T4, rat brain membranes (Rattus norvegicus, UniProt P25099).
T4 construct: A1 -adenosine receptors in rat brain membranes; from tissue; host or cells: rat brain membranes
T4 sequence (P25099 1-326): T1 sequence (P25099 1-326)
The data set can be described thus: inhibition of [3H]XAC binding to rat brain membranes (blocking experiments).

A short description of data set [5]: chemical reactivity towards primary amines (thin layer chromatography). Format: physicochemical. To be noted: ethylene diamine in molar excess, TLC.
[6] abbreviates: Table I, rat, against [3H]PIA, read-out: Ki at central A1 receptors, rat.

Read-outs that look alike come from different tables or passages of the source.

With `S=C=Nc1cccc(N=C=S)c1` [Compound 5a, 1,3-phenyldiisothiocyanate], the stability to storage result in “stability to storage” was “stable to storage at room temperature for at least several weeks”.

As to `C[C@H](Cc1ccccc1)Nc1ncnc2c1ncn2[C@@H]1O[C@H](CO)[C@@H](O)[C@H]1O` [R-PIA, reference compound], the “covalent labeling of A1-adenosine receptor” value in the data set with A1-adenosine receptors [1] is on record as “blocks the irreversible ligand”.

Broadly, the Ki is a dissociation constant, usually derived from enzyme kinetics or from competition with a known ligand. `CCCn1c(=O)c2nc(-c3ccc(OCC(=O)NCCN=C(S)Nc4ccc(N=C=S)cc4)cc3)[nH]c2n(CCC)c1=O` [Compound 4b]: the Ki was found to be 6.6 ± 1.31 nM at A1 adenosine receptors (setting [6]), 1 nM on central A1 receptors [2] and 22 nM at rat brain membranes. Further, the remaining activity at 0.1 µM on central A1 receptors [3] (1 h, read-out: remaining receptor binding sites after treatment (of initial density)) worked out at 34%. The “irreversible inhibition of A1-adenosine receptors, rat brain membranes” value at central A1 receptors [3] (rat brain, result in words) is “irreversibly inhibits A1 -adenosine receptors in membranes form calf brain and from rat brain in a dose-dependent manner”. For the same compound, the inhibition at 0.1 µM at central A1 receptors [3] (read-out: % inhib (conc)) turned out to be 63%. Moreover, the “irreversible inhibition of central A1-adenosine receptors” value at central A1 receptors [3] (result in words) is reported as “behave pharmacologically as irreversible inhibitors of central A1 -adenosine receptors”. For the same compound, in the data set with A1-adenosine receptors [4] (500 nM, one hour incubation, bovine brain membranes, [3H]XAC binding), the “adenosine receptor binding sites irreversibly inhibited” value was 90%. The “irreversible inhibition of A1-adenosine receptors, calf brain membranes” value with A1-adenosine receptors [4] (calf/bovine brain, result in words) is “irreversibly inhibits A1 -adenosine receptors in membranes form calf brain and from rat brain in a dose-dependent manner”. Further, the “covalent labeling of A1-adenosine receptor” value in the data set with A1-adenosine receptors [1] was “Specific labeling of the receptor (MW approximately 40,000)”. Also, the stability to storage result in “stability to storage” was “stable to storage at -20 °C”. In data set [5], the “reactivity towards primary amines” value is reported as “quantitatively reactive towards primary amines”.

As for `CCCn1c(=O)c2[nH]c(-c3ccc(OCC(=O)NCC=O)cc3)nc2n(CCC)c1=O` [Compound 2b], the Ki was 266 ± 40 nM on A1 adenosine receptors (setting [6]) and 1.5 ± 0.1 nM on central A1 receptors [2] (Table I, calf, against [125I]APNEA, read-out: Ki at central A1 receptors, calf). Moreover, the “% inhib (conc)” value at central A1 receptors [3] (500 nM, one hour incubation and washout, rat brain membranes, against [125I]APNEA) was found to be 0%.

At rat brain membranes (rat brain membranes, [3H]XAC), `CCCn1c(=O)c2[nH]c(-c3ccc(OCC(=O)NCCNC(=S)Nc4ccc(NC(=S)NCCN)cc4)cc3)nc2n(CCC)c1=O` [ethylene diamine adduct] came in with a Ki of 18 nM.

On to `CCCn1c(=O)c2[nH]c(-c3ccc(OCC(=O)NCCNC(=S)Nc4cccc(N=C=S)c4)cc3)nc2n(CCC)c1=O` [Compound 5b], for which, on A1 adenosine receptors (meta versus para isomer), the “relative potency in the binding assay, 5b versus 4b” value is on record as “more than twice as potent in the binding assay than 4b”. Moreover, affinity on central A1 receptors [2] was put at a Ki of 0.5 nM. Also, at central A1 receptors [3] (read-out: % inhib (conc)), the inhibition at 0.005 µM is 49%. In addition, at central A1 receptors [3] (xanthine series, result in words), the “potency of irreversible inhibition, meta versus para phenylisothiocyanate” value was “meta-position favored (5b) over the para-position (4b)”.

With `O=C(Cc1ccc(NC(=O)Cc2ccc(Nc3ncnc4c3ncn4[C@@H]3O[C@H](CO)[C@@H](O)[C@H]3O)cc2)cc1)NCCNC(=S)Nc1ccc(N=C=S)cc1` [Compound 27], the figures for the Ki on A1 adenosine receptors and on central A1 receptors [2] were 0.47 ± 0.13 nM and 0.1 nM, respectively. Moreover, on central A1 receptors [3] (read-out: % inhib (conc)), the inhibition at 0.05 µM was more than 80%. For the same compound, the “irreversible inhibition of central A1-adenosine receptors” value on central A1 receptors [3] (result in words) is given as “behave pharmacologically as irreversible inhibitors of central A1 -adenosine receptors”.
